In PubChem BioAssay AID248 (DTP/NCI, 2004):
Several values for one entry are separate records, joined by “and”; a condition that tells them apart may be missing. Equal entries are not always repeated. Inconclusive results and toxic doses are left out. Cut-off read from the data, not from the text of the source: active = T/C of 150% or more; inactive = T/C below 125%.

System: L1210 leukemia ip in BDF1 mice, survival T/C
Test: NCI In Vivo Anticancer Drug Screen. Data for tumor model L1210 Leukemia (intraperitoneal) in B6D2F1 (BDF1) mice
Conditions: endpoint: mean survival time, higher = longer survival
Procedure, shortened: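 Each compound was tested against a transplantable tumor grown in mice. The endpoint was survival, with treated animals benchmarked against vehicle controls as a simple ratio.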

[1] = dose: 100.0 mg/kg/injection, schedule: Q04DX003 (ip), vehicle: saline with Tween-80
[2] = dose: 200.0 mg/kg/injection, schedule: Q04DX003 (ip), vehicle: saline with Tween-80
[3] = dose: 50.0 mg/kg/injection, schedule: Q01DX009 (ip), vehicle: saline
[4] = dose: 100.0 mg/kg/injection, schedule: Q01DX009 (ip), vehicle: saline
[5] = dose: 200.0 mg/kg/injection, schedule: Q01DX009 (ip), vehicle: saline
[6] = dose: 100.0 mg/kg/injection, schedule: Q04DX002 (ip), vehicle: Klucel (hydroxypropylcellulose) (HPC)
[7] = dose: 200.0 mg/kg/injection, schedule: Q04DX002 (ip), vehicle: Klucel (hydroxypropylcellulose) (HPC)
[8] = dose: 400.0 mg/kg/injection, schedule: Q04DX002 (ip), vehicle: Klucel (hydroxypropylcellulose) (HPC)
[9] = dose: 100.0 mg/kg/injection, schedule: Q01DX001 (ip), vehicle: saline
[10] = dose: 200.0 mg/kg/injection, schedule: Q01DX001 (ip), vehicle: saline
[11] = dose: 400.0 mg/kg/injection, schedule: Q01DX001 (ip), vehicle: saline
[12] = dose: 400.0 mg/kg/injection, schedule: Q01DX009 (ip), vehicle: saline

Measured: T/C

COc1ccc([N+](=O)[O-])cc1NC(=O)N(C1CCCCC1)C1CCCCC1
inactive: dose: 50.0 mg/kg/injection, schedule: Q01DX009 (ip), vehicle: Klucel (hydroxypropylcellulose) (HPC) 96 % of control | dose: 100.0 mg/kg/injection, schedule: Q01DX009 (ip), vehicle: Klucel (hydroxypropylcellulose) (HPC) 93 % of control | dose: 200.0 mg/kg/injection, schedule: Q01DX009 (ip), vehicle: Klucel (hydroxypropylcellulose) (HPC) 96 % of control

CCNP(=S)(OCC)OCC
inactive: dose: 75.0 mg/kg/injection, schedule: Q01DX001 (ip), vehicle: saline 98 % of control | dose: 150.0 mg/kg/injection, schedule: Q01DX001 (ip), vehicle: saline 89 % of control | dose: 300.0 mg/kg/injection, schedule: Q01DX001 (ip), vehicle: saline 96 % of control

CC(Cl)(S(=O)c1ccccc1)C1(O)CCCCC1 (stereo unspecified)
inactive: dose: 100.0 mg/kg/injection, schedule: Q03DX002 (ip), vehicle: saline with Tween-80 113 % of control | dose: 200.0 mg/kg/injection, schedule: Q03DX002 (ip), vehicle: saline with Tween-80 102 % of control | dose: 400.0 mg/kg/injection, schedule: Q03DX002 (ip), vehicle: saline with Tween-80 105 % of control

CCn1c2ccccc2c2cc(NC(C)=O)ccc21
inactive: [1] 103 % of control | [2] 98 % of control | dose: 400.0 mg/kg/injection, schedule: Q04DX003 (ip), vehicle: saline with Tween-80 101 % of control

C[C@H]1CC2=CC(=O)CC[C@]2(C)[C@H]2CC[C@@]3(C)[C@@H](CC[C@]3(C)O)[C@H]12
inactive: dose: 12.5 mg/kg/injection, schedule: Q01DX009 (sc), vehicle: saline 102 % of control | dose: 25.0 mg/kg/injection, schedule: Q01DX009 (ip), vehicle: saline 97 % of control | dose: 25.0 mg/kg/injection, schedule: Q01DX009 (sc), vehicle: saline 107 % of control | dose: 50.0 mg/kg/injection, schedule: Q01DX001 (sc), vehicle: steriod suspending solution 101 % of control | [3] 100 % of control | dose: 50.0 mg/kg/injection, schedule: Q01DX009 (sc), vehicle: saline 103 % of control | dose: 100.0 mg/kg/injection, schedule: Q01DX001 (sc), vehicle: steriod suspending solution 101 % of control | [4] 94 % of control | dose: 100.0 mg/kg/injection, schedule: Q01DX009 (sc), vehicle: saline 100 % of control | dose: 200.0 mg/kg/injection, schedule: Q01DX001 (sc), vehicle: steriod suspending solution 107 % of control | dose: 200.0 mg/kg/injection, schedule: Q01DX009 (ip), vehicle: acetone 96 % of control | [5] 96 % of control | dose: 200.0 mg/kg/injection, schedule: Q01DX009 (sc), vehicle: acetone 101 % of control | dose: 400.0 mg/kg/injection, schedule: Q01DX001 (sc), vehicle: steriod suspending solution 101 % of control

CC1=C(C)Cc2c(OC(=O)c3ccccc3)ccc(OC(=O)c3ccccc3)c2C1
inactive: dose: 3.12 mg/kg/injection, schedule: Q01DX009 (ip), vehicle: water 101 % of control | dose: 6.25 mg/kg/injection, schedule: Q01DX009 (ip), vehicle: water 101 % of control | dose: 12.5 mg/kg/injection, schedule: Q01DX009 (ip), vehicle: water 96 % of control | dose: 25.0 mg/kg/injection, schedule: Q01DX009 (ip), vehicle: water 98 % of control and 119 % of control | dose: 50.0 mg/kg/injection, schedule: Q01DX009 (ip), vehicle: water 101 % of control | dose: 100.0 mg/kg/injection, schedule: Q01DX009 (ip), vehicle: water 90 % of control | dose: 200.0 mg/kg/injection, schedule: Q01DX009 (ip), vehicle: water 90 % of control | dose: 400.0 mg/kg/injection, schedule: Q01DX009 (ip), vehicle: water 97 % of control

O=S(=O)(CBr)CC(Cl)c1ccccc1 (stereo unspecified)
inactive: [6] 100 % of control | [7] 106 % of control | [8] 100 % of control

COc1ccc(C2=NC(=O)C(C)(C(C)=O)O2)cc1 (stereo unspecified)
inactive: [9] 93 % of control | [10] 90 % of control | [11] 90 % of control

N#CC1(C#N)OC1c1ccccc1Cl (stereo unspecified)
inactive: dose: 10.0 mg/kg/injection, schedule: Q04DX002 (ip), vehicle: Klucel (hydroxypropylcellulose) (HPC) 100 % of control | dose: 20.0 mg/kg/injection, schedule: Q04DX002 (ip), vehicle: Klucel (hydroxypropylcellulose) (HPC) 100 % of control

C[N+](C)(C)CC(=O)N/N=C\c1c(O)ccc2ccccc12
inactive: dose: 25.0 mg/kg/injection, schedule: Q04DX003 (ip), vehicle: saline with Tween-80 97 % of control | dose: 50.0 mg/kg/injection, schedule: Q04DX003 (ip), vehicle: saline with Tween-80 104 % of control | dose: 100.0 mg/kg/injection, schedule: Q04DX003 (ip), vehicle: Klucel (hydroxypropylcellulose) (HPC) 100 % of control | [1] 97 % of control | dose: 200.0 mg/kg/injection, schedule: Q04DX003 (ip), vehicle: Klucel (hydroxypropylcellulose) (HPC) 93 % of control

Clc1c(Cl)c(/C=N/Nc2ccccc2)c(Cl)c(Cl)c1/C=N\Nc1ccccc1
inactive: dose: 50.0 mg/kg/injection, schedule: Q01DX001 (ip), vehicle: saline 101 % of control | [9] 95 % of control | [4] 98 % of control | [10] 92 % of control | [5] 96 % of control | [11] 95 % of control | [12] 96 % of control

CC(C)(C)C(=O)Oc1ccc2ccccc2c1
inactive: dose: 75.0 mg/kg/injection, schedule: Q04DX002 (ip), vehicle: gum acacia 105 % of control | dose: 150.0 mg/kg/injection, schedule: Q04DX002 (ip), vehicle: gum acacia 92 % of control | dose: 300.0 mg/kg/injection, schedule: Q04DX002 (ip), vehicle: gum acacia 123 % of control

CCN(CC)Cc1cc(Nc2c3ccc([N+](=O)[O-])cc3nc3ccc(OC)cc23)ccc1O
inactive: [3] 95 % of control | [4] 98 % of control and 100 % of control | dose: 100.0 mg/kg/injection, schedule: Q04DX003 (ip), vehicle: saline 95 % of control | [5] 95 % of control and 109 % of control | dose: 200.0 mg/kg/injection, schedule: Q04DX003 (ip), vehicle: saline 95 % of control | [12] 97 % of control | dose: 400.0 mg/kg/injection, schedule: Q04DX003 (ip), vehicle: saline 90 % of control

O=C(NCCF)NC1C=CCCC1 (stereo unspecified)
inactive: dose: 75.0 mg/kg/injection, schedule: Q01DX001 (ip), vehicle: other 100 % of control | dose: 150.0 mg/kg/injection, schedule: Q01DX001 (ip), vehicle: other 95 % of control | dose: 300.0 mg/kg/injection, schedule: Q01DX001 (ip), vehicle: other 94 % of control

CCN(CCOC(=O)Nc1cc([N+](=O)[O-])ccc1C)c1ccccc1
inactive: [6] 87 % of control | [7] 94 % of control | [8] 90 % of control

O=C1NC(=S)S/C1=C/c1ccc2c(c1)OCO2
inactive: dose: 7.5 mg/kg/injection, schedule: Q01DX009 (ip), vehicle: saline with Tween-80 93 % of control | dose: 15.0 mg/kg/injection, schedule: Q01DX009 (ip), vehicle: saline with Tween-80 88 % of control | dose: 30.0 mg/kg/injection, schedule: Q01DX009 (ip), vehicle: saline with Tween-80 89 % of control

Cc1cc(Cl)c(OC(=O)Nc2ccccc2F)cc1C
inactive: dose: 25.0 mg/kg/injection, schedule: Q01DX009 (ip), vehicle: saline with Tween-80 106 % of control | dose: 50.0 mg/kg/injection, schedule: Q01DX009 (ip), vehicle: saline with Tween-80 114 % of control | dose: 100.0 mg/kg/injection, schedule: Q01DX009 (ip), vehicle: saline with Tween-80 103 % of control and 105 % of control

Nc1nc(C=O)c(CCc2ccccc2)c(=O)[nH]1
inactive: [1] 100 % of control | [2] 97 % of control

CN(C)c1ccc(C=Nc2ccccc2)cc1
inactive: dose: 100.0 mg/kg/injection, schedule: Q01DX001 (ip), vehicle: other 98 % of control | dose: 200.0 mg/kg/injection, schedule: Q01DX001 (ip), vehicle: other 102 % of control | dose: 400.0 mg/kg/injection, schedule: Q01DX001 (ip), vehicle: other 108 % of control
